The test concerns the target T1, human CCR1 (Homo sapiens, UniProt P32246).
T1 sequence (P32246 1-355): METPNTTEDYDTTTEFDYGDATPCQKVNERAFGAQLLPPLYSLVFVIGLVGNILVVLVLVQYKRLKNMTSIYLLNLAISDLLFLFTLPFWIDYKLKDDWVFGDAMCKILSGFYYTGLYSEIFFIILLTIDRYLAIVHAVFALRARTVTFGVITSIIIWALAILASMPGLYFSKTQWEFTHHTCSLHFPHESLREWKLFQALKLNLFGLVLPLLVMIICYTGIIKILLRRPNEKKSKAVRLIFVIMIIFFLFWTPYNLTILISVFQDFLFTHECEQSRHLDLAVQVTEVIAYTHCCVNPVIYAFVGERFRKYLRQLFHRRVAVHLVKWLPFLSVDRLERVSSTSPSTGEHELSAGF
Description: CCR1 binding protocol (SPA, [125I]-MIP-1α displacement). Conditions: cell membrane expressing human CCR1, 0.1 nM [125I]-MIP-1α, 4 hours at ambient temperature; read-out: Relative potency (IC50). The gist of the method:
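Human CCR1 membranes (0.5 μg/well) on SPA beads were incubated with compound and 0.1 nM [125I]-MIP-1α (final) for 4 h at ambient temperature. Buffer was Tris pH 7.4 with NaCl, KCl, MnCl and 0.1% BSA. IC50 came from ½-log compound dilutions (10 mM top DMSO stock) by displacement of bound radioligand.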
Usually IC50 stands for the concentration that inhibits the measured activity by half. Take `Cc1nnc([C@H]2CCCN2C(=O)N[C@@H](C)c2cc3cc(Cl)ccc3o2)n1Cc1ccc(Cl)cc1` [Compound 307]: the IC50 is under 50 nM. For the molecule `Cc1nnc([C@H]2CCCN2C(=O)NC(C)(C)c2ccccc2)n1Cc1ccc(Cl)cc1` [Compound 179], the IC50 was under 50 nM. As for `CC(=O)N1CCC[C@@H](NC(=O)N2CCC[C@@H]2c2nnc(C)n2Cc2ccc(Cl)cc2)C1` [Compound 283], the IC50 was in the range of 50 to 500 nM. For the molecule `Cc1nnc([C@H]2CCCN2/C(=C/[N+](=O)[O-])NCc2ccc(Cl)cc2Cl)n1Cc1ccc(Cl)cc1` [Compound 612], the IC50 lay in the range of 50 to 500 nM. For the molecule `Cc1cc(C)c(S(=O)(=O)N(C)C)cc1NC(=O)N1CCC[C@@H]1c1nnc(C)n1Cc1ccc(F)cc1` [Compound 587], the IC50 is under 50 nM. On to `CC[C@H](N/C(=C/[N+](=O)[O-])N1CCC[C@@H]1c1nnc(C)n1Cc1ccc(Cl)cc1)c1ccc(C(F)(F)F)nc1` [Compound 614], for which the IC50 was under 50 nM. On to `CCc1cc(Cn2c(C)nnc2[C@H]2CCCN2C(=O)Nc2ccc(C(F)(F)F)nc2C)ccc1Cl` [Compound 634], for which the IC50 is under 50 nM. With `O=C(N[C@H]1CCOc2cc(C(F)(F)F)ccc21)N1CCC[C@@H]1c1nncn1Cc1ccc(Cl)cc1` [Compound 107], the IC50 was under 50 nM. The result for `CC(=O)N1CCC(NC(=O)N2CCC[C@@H]2c2nnc(C)n2Cc2ccc(Cl)cc2)CC1` [Compound 450] reads 500 to 5000 nM; that for `Cc1nnc([C@H]2CCCN2C(=O)Nc2ccc(Cl)cn2)n1Cc1ccc(Cl)cc1` [Compound 243], 50 to 500 nM. For the molecule `COCc1nnc([C@H]2CCCN2C(=O)Nc2ccc(Cl)cc2F)n1Cc1ccc(Cl)cc1` [Compound 465], the IC50 fell in the range of 500 to 5000 nM. Take `Cc1nnc([C@H]2CCCN2C(=O)N[C@H]2CCOc3cc(C(F)(F)F)ccc32)n1Cc1ccc(Cl)c(Cl)c1` [Compound 410]: the IC50 was 50 to 500 nM. With `O=C(N[C@H]1CCOc2cc(Cl)ccc21)N1CCC[C@@H]1c1nncn1Cc1ccc(Cl)cc1` [Compound 114], the IC50 is under 50 nM. Next, `Cc1ccc(NC(=O)N2CCC[C@@H]2c2nnc(C)n2Cc2ccc(Cl)cc2)c(Cl)n1` [Compound 394]: 50 to 500 nM.

Consider `O=C(Nc1ccc(C(F)(F)F)cc1)N1CCC[C@@H]1c1[nH]ncc1Cc1ccc(Cl)cc1` [Compound 10], for which the IC50 was in the range of 500 to 5000 nM. For the molecule `Cc1nnc([C@H]2CCCN2C(=O)NCC2CCN(S(C)(=O)=O)CC2)n1Cc1ccc(Cl)cc1` [Compound 600], the IC50 is 50 to 500 nM.

`Cc1nnc([C@H]2CCCN2C(=O)NC2CCCCC2)n1Cc1ccc(Cl)cc1` [Compound 185]: the IC50 fell in the range of 50 to 500 nM. Next, `CC[C@@H](NC(=O)N1C[C@H](OC(C)=O)C[C@@H]1c1nnc(C)n1Cc1ccc(Cl)cc1)c1ccc(C)o1` [Compound 503]: 500 to 5000 nM; `Cc1nnc([C@H]2CCCN2C(=O)N[C@H]2CCOc3c(F)cccc32)n1Cc1ccc(Cl)cc1` [Compound 149]: under 50 nM. Next, `Cc1nnc([C@H]2C[C@@H](O)CN2C(=O)NCc2ccc(C(F)(F)F)cc2)n1Cc1ccc(Cl)cc1` [Compound 439]: 50 to 500 nM; `Cc1nc(C(F)(F)F)ccc1NC(=O)N1CC2CC2C1c1nnc(C)n1Cc1ccc(Cl)cc1` (stereo not shown) [Compound 544]: 50 to 500 nM; `Cc1nnc([C@H]2CCCN2C(=O)NC2CCCCCC2)n1Cc1ccc(Cl)cc1` [Compound 186]: 50 to 500 nM.

Turning to `Cc1nnc([C@H]2CCCN2C(=S)Nc2ccc(C(F)(F)F)cc2)n1Cc1ccc(Cl)cc1` [Compound 608], the IC50 is under 50 nM. Consider `Cc1nnc([C@H]2CCCN2C(=O)Nc2ccc(OC(F)(F)F)cc2)n1Cc1ccc(Cl)cc1` [Compound 136], for which the IC50 was under 50 nM. For `Cc1nnc([C@H]2CCCN2C(=O)Nc2cccc(Cl)c2F)n1Cc1ccc(Cl)cc1` [Compound 416], the IC50 was under 50 nM.

Turning to `Cc1nc(C)c(NC(=O)N2CCC[C@@H]2c2nnc(C)n2Cc2ccc(Cl)cc2)c(C)n1` [Compound 326], the IC50 is under 50 nM. As for `CC[C@H](NC(=O)N1CCC[C@@H]1c1nnc(C)n1Cc1ccc(Cl)cc1)c1ccc(C(F)(F)F)nc1C` [Compound 627], the half-maximal inhibitory concentration (IC50) is under 50 nM. For the molecule `Cc1nc(C(F)(F)F)ccc1NC(=O)N1CC2CC2[C@@H]1c1nnc(C)n1Cc1ccc(Cl)cc1` (stereo partly shown) [Compound 563], the IC50 is under 50 nM.

With `COc1cc(Cl)ccc1NC(=O)N1CCC[C@@H]1c1nnc(C)n1Cc1ccc(Cl)cc1` [Compound 428], the IC50 is under 50 nM. As for `Cc1nnc([C@H]2CCCN2C(=O)N[C@@H]2CCS(=O)(=O)c3ccc(Cl)cc32)n1Cc1ccc(Cl)cc1` [Compound 368], the IC50 was under 50 nM. Consider `Cc1ccncc1NC(=O)N1CCC[C@@H]1c1nnc(C)n1Cc1ccc(Cl)cc1` [Compound 225], for which the IC50 was 50 to 500 nM. As for `Cc1cnccc1NC(=O)N1CCC[C@@H]1c1nnc(C)n1Cc1ccc(Cl)cc1` [Compound 299], the IC50 lay in the range of 50 to 500 nM. Consider `Cc1nnc([C@H]2CCCN2C(=O)N[C@@H]2COCc3c(F)cccc32)n1Cc1ccc(Cl)cc1` [Compound 141], for which the IC50 is 50 to 500 nM. As for `Cc1nnc([C@H]2CCCN2C(=O)Nc2ccc3c(c2)N(C)C(=O)CO3)n1Cc1ccc(F)cc1` [Compound 386], the IC50 lay within 50 to 500 nM. Turning to `Cc1nnc([C@H]2CC(C)(O)CN2C(=O)Nc2ccc(Cl)cc2F)n1Cc1ccc(Cl)cc1` (stereo partly shown) [Compound 532], the IC50 lay in the range of 50 to 500 nM.

In the case of `Cc1nnc([C@H]2CCCN2C(=O)Nc2cncnc2)n1Cc1ccc(Cl)cc1` [Compound 250], the IC50 was in the range of 500 to 5000 nM. Consider `O=C(N[C@H]1CCOc2cc(C(F)(F)F)ccc21)N1CCC[C@@H]1c1nnc(C(F)(F)F)n1Cc1ccc(Cl)cc1` [Compound 235], for which the IC50 lay in the range of 50 to 500 nM. For `Cc1nc(C(F)(F)F)ccc1NC(=O)N1CCC[C@@H]1c1ncnn1Cc1ccc(Cl)cc1` [Compound 548], the IC50 lay in the range of 50 to 500 nM. The result for `Cc1cc(C(=O)O)ccc1NC(=O)N1CCC[C@@H]1c1nnc(C)n1Cc1ccc(Cl)cc1` [Compound 240] reads 50 to 500 nM; that for `Cc1nc([C@H]2CCCN2C(=O)Nc2c(C)cc(C(F)(F)F)cc2C)n(Cc2ccc(Cl)cc2)n1` [Compound 94], 50 to 500 nM; that for `O=C(Nc1ccc(C(F)(F)F)cc1Cl)N1CCC[C@@H]1c1ncnn1Cc1ccc(Cl)cc1` [Compound 70], 50 to 500 nM. Next, `Cc1cccc(-c2noc(C)c2NC(=O)N2CCC[C@@H]2c2nnc(C)n2Cc2ccc(Cl)cc2)c1` [Compound 288]: under 50 nM. Next, `CC(=O)N1CCC(NC(=O)N2CCC[C@@H]2c2nnc(C)n2Cc2ccc(Cl)cc2)c2ccccc21` (stereo partly shown) [Compound 604]: under 50 nM; `Cc1nc(C(F)(F)F)ccc1NC(=O)N1CC(F)C[C@@H]1c1nnc(C)n1Cc1ccc(Cl)cc1` (stereo partly shown) [Compound 580]: under 50 nM; `O=C(N[C@H]1CCCc2ccccc21)N1CCC[C@@H]1c1nccn1Cc1ccc(Cl)cc1` [Compound 29]: under 50 nM. For `Cc1nnc([C@H]2C[C@H](O)CN2C(=O)NCc2ccc(Cl)cc2Cl)n1Cc1ccc(Cl)cc1` [Compound 470], the IC50 is under 50 nM. Turning to `Cc1noc(C)c1CC(=O)N1CCC[C@@H]1c1ncnn1Cc1ccc(Cl)cc1` [Compound 631], the IC50 was 500 to 5000 nM. On to `Cc1nc(C(F)(F)F)ccc1CC(=O)N1C[C@@H](O)C[C@@H]1c1nnc(C)n1Cc1ccc(Cl)cc1` [Compound 619], for which the IC50 was under 50 nM. The result for `O=C(NC1CCCOc2cccc(Cl)c21)N1CCC[C@@H]1c1ncnn1Cc1ccc(Cl)cc1` (stereo partly shown) [Compound 87] reads 50 to 500 nM.

The values above are taken from US8288371B2, “Ortho pyrrolidine, benzyl-substituted heterocycle CCR1 antagonists for autoimmune diseases and inflammation” (Pharmacopeia, LLC, priority 2007, dated 2012).
